# Results published in patent US20220133642A1, “TOPICAL FILM-FORMING SPRAY” (GRACE THERAPEUTICS INC., priority 2015, published 2022).
# Structures can show the parent of a compound that is named as a salt.
# Experiment: Solubility study for drug saturation in spray vehicle
# Format: physicochemical
# Conditions: 16 mg of drug; after standing
# Procedure: Solubility studies to find out concentration at which the drug is present at saturation levels were performed as follows: The drug (bupivacaine hydrochloride 2, 4, 8, 10, 12 & 16 mg) was added to, propylene glycol, oleyl alcohol and menthol in ethanol under stirring and mixing till clear solution is formed. The film-forming polymer in the clear drug solution was added while stirring till polymer dissolves or hydrates completely.
smiles,measurement,value
CCCCN1CCCCC1C(=O)Nc1c(C)cccc1C (stereo not shown) [bupivacaine hydrochloride],appearance of drug solution,precipitated out from clear solution after standing
